From ChEMBL document CHEMBL5257018, “Novel Strategies for the Treatment of Pseudomonas aeruginosa Infections” (J Med Chem, 2016)
In brackets after ≈: the same amount, converted by molar mass. Bridge positions count the residues as written; N and C are the ends. Square brackets hold non-standard residues; d marks the D form. Peptide text beside a SMILES is read from it. * marks the point of attachment. Heptanoyl(6-Me) = CC(C)CCCCC(=O)*; Dab = NCC[C@H](N)C(=O)O

Tests used:
[1] = Half life in mouse; type: ADME, organism-based; conditions: in vivo
[2] = molecular target: T1, PA-I galactophilic lectin (Pseudomonas aeruginosa (strain ATCC 15692 / PAO1 / 1C / PRS 101 / LMG12228), UniProt Q05097); assay: Binding affinity to Pseudomonas aeruginosa PAO1 LecA assessed as dissociation constant
T1 sequence (Q05097 whole entry): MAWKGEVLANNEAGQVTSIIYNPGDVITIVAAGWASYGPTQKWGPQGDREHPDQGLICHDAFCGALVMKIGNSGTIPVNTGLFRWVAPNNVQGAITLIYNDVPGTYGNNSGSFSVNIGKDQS

[3] = test system: Pseudomonas aeruginosa; assay: Antimicrobial activity against polymyxin resistant Pseudomonas aeruginosa assessed as reduction in bacterial growth; type: functional
[4] = test system: Pseudomonas aeruginosa; assay: Antibacterial activity against Pseudomonas aeruginosa PAO1 assessed as reduction in bacterial growth; type: functional
[5] = test system: Pseudomonas aeruginosa; assay: Antimicrobial activity against Pseudomonas aeruginosa assessed as reduction in bacterial growth; type: functional, organism-based
[6] = organism: Homo sapiens; assay: Inhibition of elastase (unknown origin) at 10 uM relative to control
[7] = test system: Pseudomonas aeruginosa; assay: Inhibition of Pseudomonas aeruginosa PAO1 Pyocyanin at 100 uM relative to control
[8] = test system: Pseudomonas aeruginosa; assay: Antibiofilm activity against Pseudomonas aeruginosa assessed as reduction in biofilm formation at 100 uM measured after 24 hrs; type: functional; design: scale not given: the % may be the effect or the level left
[9] = test system: Pseudomonas aeruginosa; assay: Antibiofilm activity against Pseudomonas aeruginosa assessed as reduction in biofilm formation; type: functional, organism-based
[10] = test system: Pseudomonas aeruginosa; assay: Inhibition of Pseudomonas aeruginosa PAO1 Pyocyanin at 200 uM relative to control
[11] = molecular target: Elastase (Pseudomonas aeruginosa (strain ATCC 15692 / PAO1 / 1C / PRS 101 / LMG12228)) (UniProt P14756); assay: Inhibition of Pseudomonas aeruginosa PAO1 elastase at 200 uM relative to control
Chain of Elastase (Pseudomonas aeruginosa (strain ATCC 15692 / PAO1 / 1C / PRS 101 / LMG12228)) (P14756 198-498 limits assumed): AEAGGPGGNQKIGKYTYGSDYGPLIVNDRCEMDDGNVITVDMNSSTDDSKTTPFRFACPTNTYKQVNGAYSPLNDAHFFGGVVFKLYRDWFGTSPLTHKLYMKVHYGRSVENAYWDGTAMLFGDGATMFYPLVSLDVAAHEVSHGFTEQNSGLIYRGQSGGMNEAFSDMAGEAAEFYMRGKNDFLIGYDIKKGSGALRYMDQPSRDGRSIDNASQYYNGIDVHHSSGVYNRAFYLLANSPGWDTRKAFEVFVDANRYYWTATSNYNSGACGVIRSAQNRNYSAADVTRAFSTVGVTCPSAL

[12] = molecular target: T2, Hexosaminidase D (Homo sapiens, UniProt Q8WVB3); assay: Inhibition of human recombinant beta-hexosaminidase
T2 sequence (Q8WVB3 whole entry): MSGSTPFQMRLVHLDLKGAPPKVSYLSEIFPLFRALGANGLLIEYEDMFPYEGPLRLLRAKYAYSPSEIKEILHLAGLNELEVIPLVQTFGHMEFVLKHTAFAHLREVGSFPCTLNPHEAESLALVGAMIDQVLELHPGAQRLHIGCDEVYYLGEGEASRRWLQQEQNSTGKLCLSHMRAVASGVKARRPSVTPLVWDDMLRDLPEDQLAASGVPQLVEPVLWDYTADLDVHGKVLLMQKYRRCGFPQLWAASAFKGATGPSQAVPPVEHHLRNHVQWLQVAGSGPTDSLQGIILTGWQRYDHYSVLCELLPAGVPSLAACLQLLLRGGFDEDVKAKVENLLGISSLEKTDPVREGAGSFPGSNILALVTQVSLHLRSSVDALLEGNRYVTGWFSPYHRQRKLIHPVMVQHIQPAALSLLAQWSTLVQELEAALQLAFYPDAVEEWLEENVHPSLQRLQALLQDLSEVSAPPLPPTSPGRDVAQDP

[13] = molecular target: T3, Acyl-homoserine lactone acylase PvdQ (Pseudomonas aeruginosa (strain LESB58), UniProt Q9I194); assay: Inhibition of Pseudomonas aeruginosa ATCC 15692 pvdQ
T3 sequence (Q9I194 whole entry): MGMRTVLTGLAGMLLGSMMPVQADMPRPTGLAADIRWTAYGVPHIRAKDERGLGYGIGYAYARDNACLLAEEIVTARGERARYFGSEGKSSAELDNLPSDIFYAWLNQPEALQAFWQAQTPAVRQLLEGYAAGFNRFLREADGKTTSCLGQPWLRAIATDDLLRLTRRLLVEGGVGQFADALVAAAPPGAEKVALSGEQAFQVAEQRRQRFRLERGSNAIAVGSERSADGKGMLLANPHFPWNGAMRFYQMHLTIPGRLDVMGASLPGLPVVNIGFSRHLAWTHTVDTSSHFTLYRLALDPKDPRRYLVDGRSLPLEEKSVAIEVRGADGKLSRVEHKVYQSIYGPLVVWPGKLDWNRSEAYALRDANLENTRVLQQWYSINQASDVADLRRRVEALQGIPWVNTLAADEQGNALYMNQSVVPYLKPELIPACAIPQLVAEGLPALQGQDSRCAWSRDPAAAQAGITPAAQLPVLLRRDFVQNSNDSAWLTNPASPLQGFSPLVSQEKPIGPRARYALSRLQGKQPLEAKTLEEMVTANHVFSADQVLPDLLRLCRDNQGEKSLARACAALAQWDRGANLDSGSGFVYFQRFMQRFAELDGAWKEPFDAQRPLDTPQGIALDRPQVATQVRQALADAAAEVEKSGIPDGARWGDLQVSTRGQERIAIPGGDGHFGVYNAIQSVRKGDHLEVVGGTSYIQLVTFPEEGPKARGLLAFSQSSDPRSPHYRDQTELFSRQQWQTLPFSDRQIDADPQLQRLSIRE

[14] = molecular target: T3, Acyl-homoserine lactone acylase PvdQ; assay: Inhibition of Pseudomonas aeruginosa ATCC 15692 pvdQ incubated for 4 hrs
[15] = test system: Pseudomonas aeruginosa; assay: Downregulation of c-di-GMP level in Pseudomonas aeruginosa PA14 planktonic cells harboring wspR gene mutation at 50 uM incubated for 24 hrs by HPLC analysis; type: functional
[16] = molecular target: T4, Transcriptional activator protein LasR (Pseudomonas aeruginosa (strain ATCC 15692 / PAO1 / 1C / PRS 101 / LMG12228)) (UniProt P25084); assay: Inhibition of Pseudomonas aeruginosa PAO1 LasR at 200 uM relative to control
T4 sequence (whole entry): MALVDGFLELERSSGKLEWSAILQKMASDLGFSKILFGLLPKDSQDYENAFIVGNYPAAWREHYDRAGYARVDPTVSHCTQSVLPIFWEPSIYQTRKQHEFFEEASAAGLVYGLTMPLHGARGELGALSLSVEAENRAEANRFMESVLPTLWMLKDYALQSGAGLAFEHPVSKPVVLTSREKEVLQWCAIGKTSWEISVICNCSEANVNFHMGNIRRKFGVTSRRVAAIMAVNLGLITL

[17] = molecular target: T3, Acyl-homoserine lactone acylase PvdQ; assay: Inhibition of Pseudomonas aeruginosa ATCC 15692 pvdQ measured after 5 mins
[18] = molecular target: T3, Acyl-homoserine lactone acylase PvdQ; assay: Inhibition of wild type Pseudomonas aeruginosa PAO1 pvdQ
[19] = molecular target: T3, Acyl-homoserine lactone acylase PvdQ; assay: Competitive inhibition of Pseudomonas aeruginosa ATCC 15692 pvdQ
[20] = Inhibition of bacterial FabH; design: species or system Bacteria
[21] = Inhibition of elastase (unknown origin); design: species or system Homo sapiens
[22] = test system: Pseudomonas aeruginosa; assay: Antimicrobial activity against Pseudomonas aeruginosa PA14 assessed as reduction in bacterial growth; type: functional

`CO[C@H]1O[C@H](CNS(=O)(=O)c2c(C)cc(C)cc2C)[C@@H](O)[C@H](O)[C@@H]1O` gave a half-life [1] of 5 min and a Kd [2] of 3.3 µM.
With `CC(C)CCCCC(=O)N[C@@H](CCN)C(=O)N[C@H](C(=O)N[C@@H](CCN)C(=O)N[C@H]1CCNC(=O)[C@H]([C@@H](C)O)NC(=O)[C@H](CCN)NC(=O)[C@H](CCN)NC(=O)[C@H](CC(C)C)NC(=O)[C@@H](Cc2ccccc2)NC(=O)[C@H](CCN)NC1=O)[C@@H](C)O` [POLYMYXIN B2] ({Heptanoyl(6-Me)}-[Dab]T[Dab][Dab][Dab][dF]L[Dab][Dab]T; lactam 4-C) the MIC [3] was under 2 µg/mL.
`CC(=O)Oc1cccc(C(=O)NCCCC(CCCNC(=O)c2cccc(OC(C)=O)c2OC(C)=O)(CCCNC(=O)c2cccc(OC(C)=O)c2OC(C)=O)NC(=O)CCC(=O)N[C@@H](C(=O)N[C@@H]2C(=O)N3[C@@H]2SC(C)(C)[C@@H]3C(=O)O)c2ccc(O)cc2)c1OC(C)=O` showed an MIC [4] of over 200 µM and an MIC [5] of 0.39 µM.
In the case of `CCCCCCCCCC(=O)CC(=O)Nc1ccccc1O`, the inhibition [6] is reported as 50%.
With `CCCCCCCCCNC(=O)CC(=O)c1ccccc1` the inhibition [7] was 90%.
For `COc1ccc2[nH]c(SCc3ccc(C)cc3)nc2c1`, the Activity [8] was 50% and the IC50 [9] was 0.046 µM.
`CCCCCCCCCC(=O)CC(=O)Nc1cccc(OC)c1` gave an inhibition [10] of 93% and an inhibition [11] of 63%.
Compound `C[C@@H](Oc1ccc(Cl)cc1Cl)C(=O)NCc1ccc2c(c1)OCO2` has an IC50 [12] of 12.5 µM.
Work on `C=CCNc1ncnc2ccc(Br)cc12` yielded an IC50 [13] of 130 µM and an IC50 [14] of under 0.02 µM.
In the case of `O=C1c2ccccc2[Se](=O)N1c1ccccc1` (stereo not given), the Activity [15] is reported as 80%.
`O=C(Cc1ccc(Br)cc1)N[C@H]1CCOC1=O` showed an inhibition [16] of 77%.
Work on `N#CC(c1ccc(F)cc1)c1cccc(C(F)(F)F)n1` (stereo not given) yielded an IC50 [17] of 1.9 µM, an IC50 [18] of 19 µM and a Ki [19] of 0.00019 µM.
For `CCN(CC)S(=O)(=O)c1cccc(C(=O)Nc2cccc(O)c2C(=O)O)c1`, the IC50 [20] was 35 µM.
`O=c1onc2n1-c1cc(Br)ccc1OC2` gave an IC50 [13] of 65 µM and an IC50 [14] of under 0.02 µM.
`COc1cc(/C=C2\S/C(=N\c3ccccc3)N(c3ccccc3)C2=O)cc(OC)c1O` gave an IC50 [21] of 380 µM.
Compound `CO[C@H](C(N)=O)[C@H](NC(=O)c1ccc(NC(=O)c2ccc([N+](=O)[O-])cc2)cc1)C(=O)Nc1ccc(C(=O)Nc2ccc(C(=O)Nc3ccc(C(=O)O)cc3OC(C)C)c(O)c2OC(C)C)cc1` has an MIC [5] of 1 µg/mL and an MIC [22] of 3.4 µg/mL (≈ 3.7 µM).
